According to BindingDB's records for doi:10.1021/acs.jmedchem.6b01892 (University of Regensburg, 2017):
pIC50: −log10 of the molar value.

Columns and labels:
[1] = Competitive binding affinity to human muscarinic acetylcholine receptor M2 expressed in […] cell homogenates assessed as W84 pIC50 at 2 nM after 2 hrs by liquid scintillation counting assay
[2] = Competitive binding affinity to human muscarinic acetylcholine receptor M2 expressed in […] cell homogenates assessed as W84 pIC50 at 0.4 nM after 2 hrs by liquid scintillation counting assay
[3] = Competitive binding affinity to human muscarinic acetylcholine receptor M2 expressed in […] cell homogenates assessed as W84 pIC50 at 4 nM after 2 hrs by liquid scintillation counting assay
[4] = Competitive binding affinity to human muscarinic acetylcholine receptor M2 expressed in […] cell homogenates assessed as W84 pIC50 at 1 nM after 2 hrs by liquid scintillation counting assay
[5] = Competitive binding affinity to human muscarinic acetylcholine receptor M2 expressed in […] cells assessed as W84 pIC50 at 4 nM after 2 hrs by liquid scintillation counting assay
[6] = Competitive binding affinity to human muscarinic acetylcholine receptor M2 expressed in […] cells assessed as W84 pIC50 at 30 nM after 2 hrs by liquid scintillation counting assay
[7] = Competitive binding affinity to human muscarinic acetylcholine receptor M2 expressed in […] cells assessed as W84 pIC50 at 8 nM after 2 hrs by liquid scintillation counting assay
[8] = Competitive binding affinity to human muscarinic acetylcholine receptor M2 expressed in […] cells assessed as W84 pIC50 at 2 nM after 2 hrs by liquid scintillation counting assay
[9] = Competitive binding affinity to human muscarinic acetylcholine receptor M2 expressed in […] cells assessed as W84 pIC50 at 15 nM after 2 hrs by liquid scintillation counting assay

[3H]CC([3H])C(=O)NCc1cc(C(=O)NCCNC(=O)CCc2cn(CCCCC3CCN(CC(=O)N4c5ccccc5NC(=O)c5ccccc54)CC3)cn2)cc(C(=O)NCCNC(=O)CCc2cn(CCCCC3CCN(CC(=O)N4c5ccccc5NC(=O)c5ccccc54)CC3)cn2)c1 (centres undefined)
pIC50 [1]: 4.98
pIC50 [2]: 5.57
pIC50 [3]: 4.73
pIC50 [4]: 5.18

[3H]CC([3H])C(=O)NCCNC(=O)CCc1cn(CCCCC2CCN(CC(=O)N3c4ccccc4NC(=O)c4ccccc43)CC2)cn1 (centres undefined)
pIC50 [5]: 6.55
pIC50 [6]: 5.68
pIC50 [7]: 6.20
pIC50 [8]: 6.74
pIC50 [9]: 5.87
